Source: ChEMBL document CHEMBL1156005, “Non-nucleoside inhibitors of HCV polymerase NS5B. Part 3: synthesis and optimization studies of benzothiazine-substituted tetramic acids” (Bioorg Med Chem Lett, 2009)

Legend:
[1] = target: Genome polyprotein (Hepatitis C virus genotype 1b (isolate Con1) (HCV), UniProt Q9WMX2); assay: Inhibition of […] 1b con1 NS5B polymerase assessed as [3H]UTP incorporation into acid insoluble RNA product
[2] = Cytotoxicity against human 2209-23 cells assessed as […] by WST-1 assay; format: cell-based
[3] = test system: Hepatitis C virus; assay: Antiviral activity against HCV 1b infected in human 2209-23 cells assessed as inhibition of virus RNA replication by renilla luciferase reporter gene assay in presence of 40% human serum; format: functional, organism-based, Hepacivirus hominis; details: genotype 1b
[4] = test system: Hepatitis C virus; assay: Antiviral activity against HCV 1b infected in human 2209-23 cells assessed as inhibition of virus RNA replication by renilla luciferase reporter gene assay in presence of 5% fetal bovine serum; format: functional, organism-based, Hepacivirus hominis; details: genotype 1b
[5] = test system: Hepatitis C virus; assay: Selectivity ratio, EC50 for HCV 1b in presence of 40% human serum to EC50 for HCV 1b in presence of 5% fetal bovine serum; format: functional, Hepacivirus hominis, genotype 1b
[6] = Clearance in rat at 2 mg/kg, iv; format: ADME, organism-based; set-up: dose 2 mg/kg, route intravenous; details: in vivo
[7] = Metabolic stability in rat liver microsomes; format: ADME, Microsome; details: read-out: Stability
[8] = Permeability by PAMPA; format: ADME; details: read-out: permeability
[9] = target: Cytochrome P450 3A4 (Homo sapiens, UniProt P08684); assay: Inhibition of CYP3A4 by time dependent inactivation assay; format: ADME
Cytochrome P450 3A4, sequence (P08684 whole entry): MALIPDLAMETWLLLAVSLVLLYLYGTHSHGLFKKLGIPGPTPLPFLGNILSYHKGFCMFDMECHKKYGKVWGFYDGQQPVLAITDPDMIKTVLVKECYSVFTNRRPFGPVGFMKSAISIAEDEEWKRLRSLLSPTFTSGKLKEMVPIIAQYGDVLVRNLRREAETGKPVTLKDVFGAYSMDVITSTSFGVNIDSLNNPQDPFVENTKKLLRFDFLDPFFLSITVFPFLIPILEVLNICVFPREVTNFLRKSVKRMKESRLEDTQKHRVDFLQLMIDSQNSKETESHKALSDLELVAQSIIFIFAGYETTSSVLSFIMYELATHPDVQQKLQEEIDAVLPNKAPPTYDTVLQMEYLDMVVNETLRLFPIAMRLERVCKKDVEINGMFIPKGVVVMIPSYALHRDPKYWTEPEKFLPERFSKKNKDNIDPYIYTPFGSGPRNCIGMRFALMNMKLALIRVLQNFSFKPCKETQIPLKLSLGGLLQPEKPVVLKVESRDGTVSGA

[10] = test system: Caco-2; assay: Efflux ratio of permeability from […] side in human Caco-2 cells after 21 days; format: ADME, cell-based; details: caco-2, 504 h
[11] = test system: Hepatitis C virus; assay: Ratio of EC50 for HCV 1a over EC50 for HCV 1b
[12] = test system: Hepatitis C virus; assay: Antiviral activity against HCV 1b infected in human 2209-23 cells assessed as inhibition of virus RNA replication by renilla luciferase reporter gene assay; format: functional, organism-based, Hepacivirus hominis; details: genotype 1b
[13] = Oral bioavailability in rat; format: ADME, organism-based; details: in vivo
[14] = AUC in rat at 5 mg/kg; format: ADME, organism-based; set-up: dose 5 mg/kg; details: plasma
[15] = Tmax in po dosed rat; format: ADME, organism-based; details: in vivo

Genome polyprotein, sequence (Q9WMX2 2420-3010 limits assumed): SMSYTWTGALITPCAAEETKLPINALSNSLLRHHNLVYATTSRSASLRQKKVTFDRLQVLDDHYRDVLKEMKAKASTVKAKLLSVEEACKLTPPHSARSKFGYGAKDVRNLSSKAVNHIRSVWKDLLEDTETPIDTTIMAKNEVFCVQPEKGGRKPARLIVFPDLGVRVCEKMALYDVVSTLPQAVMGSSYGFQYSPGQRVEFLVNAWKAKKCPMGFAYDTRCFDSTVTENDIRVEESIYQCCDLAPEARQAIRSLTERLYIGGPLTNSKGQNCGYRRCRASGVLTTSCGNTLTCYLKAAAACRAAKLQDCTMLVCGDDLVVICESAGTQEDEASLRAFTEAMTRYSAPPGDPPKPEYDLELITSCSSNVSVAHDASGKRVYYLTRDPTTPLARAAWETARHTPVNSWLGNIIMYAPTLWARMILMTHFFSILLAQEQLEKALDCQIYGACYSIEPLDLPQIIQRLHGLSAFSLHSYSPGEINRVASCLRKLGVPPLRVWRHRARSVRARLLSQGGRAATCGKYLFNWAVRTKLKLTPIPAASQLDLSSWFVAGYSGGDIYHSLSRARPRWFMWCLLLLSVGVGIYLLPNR

| Compound | IC50 [1] | CC50 [2] | EC50 [3] | EC50 [4] | Ratio EC50 [5] | clearance [6] | microsomal CLint [7] | Papp [8] | inhibition (INH) [9] | Ratio [10] | Ratio EC50 [11] | EC50 [12] | bioavailability [13] | AUC [14] | Tmax [15] |
| --- | --- | --- | --- | --- | --- | --- | --- | --- | --- | --- | --- | --- | --- | --- | --- |
| COc1cc(CN2C(=O)C(C3=CS(=O)(=O)c4cc(NS(C)(=O)=O)ccc4N3)=C(O)[C@@H]2C(C)(C)C)ccc1F | 0.004 µM | > 50 µM | 0.422 µM | 0.028 µM | 15.1 | – | – | – | – | – | – | – | – | – | – |
| CC(C)(C)[C@H]1C(O)=C(C2=CS(=O)(=O)c3cc(NS(C)(=O)=O)ccc3N2)C(=O)N1Cc1ccc(F)c(Cl)c1 | 0.005 µM | > 50 µM | 0.163 µM | 0.009 µM | 18.1 | 86 mL/min/kg | 84 µL/min/mg | 0.98 ×10⁻⁶ cm/s | 41% | – | – | – | – | – | – |
| CC(C)(C)[C@H]1C(O)=C(C2=CS(=O)(=O)c3cc(NS(C)(=O)=O)ccc3N2)C(=O)N1Cc1ccccc1 | 0.008 µM | > 50 µM | 0.139 µM | 0.032 µM | 4.3 | 144 mL/min/kg | – | 1.8 ×10⁻⁶ cm/s | 19% | 11 | 4 | – | – | – | – |
| CC(C)(CO)[C@H]1C(O)=C(C2=CS(=O)(=O)c3cc(NS(C)(=O)=O)ccc3N2)C(=O)N1Cc1ccc(F)cc1 | – | – | – | – | – | – | – | – | 20.5% | – | – | – | – | – | – |
| CC(C)(C)[C@@H]1NC(=O)C(C2=CS(=O)(=O)c3cc(NS(C)(=O)=O)ccc3N2)=C1O | – | – | – | – | – | – | – | – | 5.7% | – | – | – | – | – | – |
| CC(C)(C)[C@H]1C(O)=C(C2=C(Cl)S(=O)(=O)c3cc(NS(C)(=O)=O)ccc3N2)C(=O)N1Cc1ccc(F)cc1 | 0.002 µM | > 50 µM | – | – | – | – | – | – | 31% | – | – | 0.004 µM | – | – | – |
| Cc1cc(CN2C(=O)C(C3=CS(=O)(=O)c4cc(NS(C)(=O)=O)ccc4N3)=C(O)[C@@H]2C(C)(C)C)ccc1F | 0.003 µM | > 50 µM | 0.122 µM | 0.012 µM | 10.2 | 101 mL/min/kg | 327 µL/min/mg | 1.62 ×10⁻⁶ cm/s | 39% | – | 4 | – | – | – | – |
| CC(C)(C)[C@H]1C(O)=C(C2=CS(=O)(=O)c3cc(NS(C)(=O)=O)ccc3N2)C(=O)N1Cc1ccc(F)cc1F | 0.013 µM | > 50 µM | 0.226 µM | 0.035 µM | 6.5 | – | – | – | – | – | 4 | – | – | – | – |
| CC(C)(C)[C@H]1C(O)=C(C2=C(C(N)=O)S(=O)(=O)c3cc(NS(C)(=O)=O)ccc3N2)C(=O)N1Cc1ccc(F)cc1 | 0.011 µM | > 50 µM | – | – | – | 5 mL/min/kg | – | – | 17.8% | – | 4 | 0.016 µM | – | – | – |
| CC(C)(C)[C@H]1C(O)=C(C2=CS(=O)(=O)c3cc([N+](=O)[O-])ccc3N2)C(=O)N1Cc1ccc(F)cc1 | 1.8 µM | > 50 µM | – | – | – | – | – | – | 0.4% | – | – | 16.5 µM | – | – | – |
| CC(C)(C)[C@H]1C(O)=C(C2=CS(=O)(=O)c3cc(NS(C)(=O)=O)cc(F)c3N2)C(=O)N1Cc1ccc(F)cc1 | 0.009 µM | > 50 µM | – | – | – | 36 mL/min/kg | – | – | 8.5% | – | 4 | 0.036 µM | – | – | – |
| CC(=O)C1=C(C2=C(O)[C@H](C(C)(C)C)N(Cc3ccc(F)cc3)C2=O)Nc2ccc(NS(C)(=O)=O)cc2S1(=O)=O | 0.004 µM | > 50 µM | – | – | – | – | – | – | 15.1% | – | – | 0.02 µM | – | – | – |
| CC(C)(C)[C@H]1C(O)=C(C2=CS(=O)(=O)c3cc(C#N)ccc3N2)C(=O)N1Cc1ccc(F)cc1 | 1.2 µM | > 50 µM | – | – | – | – | – | – | 10.9% | – | – | 6.85 µM | – | – | – |
| CC(C)CCN1C(=O)C(C2=CS(=O)(=O)c3cc(NS(C)(=O)=O)ccc3N2)=C(O)[C@@H]1C(C)(C)C | 0.005 µM | > 50 µM | 0.66 µM | 0.03 µM | 22 | – | – | – | – | – | – | – | – | – | – |
| CC(C)(C)[C@H]1C(O)=C(C2=CS(=O)(=O)c3cc(NS(C)(=O)=O)ccc3N2)C(=O)N1Cc1ccc(F)cn1 | 0.042 µM | > 50 µM | 1.72 µM | 0.201 µM | 8.5 | – | – | – | – | – | – | – | – | – | – |
| CC1=C(C2=C(O)[C@H](C(C)(C)C)N(Cc3ccc(F)cc3)C2=O)Nc2ccc(NS(C)(=O)=O)cc2S1(=O)=O | 0.01 µM | > 50 µM | – | – | – | – | – | – | 21.9% | – | – | 0.078 µM | – | – | – |
| CCC(C)(C)[C@H]1C(O)=C(C2=CS(=O)(=O)c3cc(NS(C)(=O)=O)ccc3N2)C(=O)N1Cc1ccc(F)c(C)c1 | – | – | – | – | – | – | – | – | – | – | – | 0.024 µM | – | – | – |
| CC(C)(C)[C@H]1C(O)=C(C2=C(C#N)S(=O)(=O)c3cc(NS(C)(=O)=O)ccc3N2)C(=O)N1Cc1ccc(F)cc1 | 0.006 µM | > 50 µM | – | – | – | – | – | – | 24.7% | – | 4 | 0.016 µM | – | – | – |
| CC(C)(C)CCN1C(=O)C(C2=CS(=O)(=O)c3cc(NS(C)(=O)=O)ccc3N2)=C(O)[C@@H]1C(C)(C)C | 0.008 µM | > 50 µM | 0.065 µM | 0.016 µM | 4.1 | > 100 mL/min/kg | 79 µL/min/mg | 1.8 ×10⁻⁶ cm/s | 23% | 14 | – | – | – | – | – |
| CC(C)(C)[C@H]1C(O)=C(C2=CS(=O)(=O)c3cc(NS(C)(=O)=O)ccc3N2)C(=O)N1Cc1ccc(F)cc1 | 0.007 µM | > 50 µM | 0.033 µM | 0.012 µM | 2.7 | 101 mL/min/kg | 32 µL/min/mg | 1.4 ×10⁻⁶ cm/s | 41% | 25 | 4 | 0.005 µM | 22% | 189 ng·h/mL | 1.3 h |
| CC(C)(C)[C@H]1C(O)=C(C2=CS(=O)(=O)c3cc(F)ccc3N2)C(=O)N1Cc1ccc(F)cc1 | 0.338 µM | > 50 µM | – | – | – | – | – | – | 7.6% | – | – | 1.87 µM | – | – | – |
